From US5563125A, “5'-deoxy-5'-(substituted)alkylthioribose compounds and their pharmaceutical compositions” (priority 1992, dated 1996)
Read-outs that look alike come from different tables or passages of the source.

Experiments:
[1] = system: KETRI 243 T. b. rhodesiense clinical isolate; experiment: Bloodstream forms of African trypanosomes grown in vitro, KETRI 243; format: cell-based; conditions: day 4
Description: (§1) Cultures were initiated directly from infected mouse blood into Falcon 24 well plates containing 1 ml of Iscoves modified Dulbecco's medium plus 20% horse serum, 2 mM pyruvate, 2 mM glutamine, and 0.2 uM mercaptoethanol. Initial cell counts were 2.5-5.0×10^5 /ml. Plates were incubated at 37 C. in 5 percent CO2. HETA was dissolved in the medium and filter sterilized. One half the volume of each well was replaced with fresh medium each day.
(§2) Cell counts were made daily. Data are given as percent inhibition of growth as determined by hemocytometer counts on day 4 as compared to control cultures without drug.
(§3) In Table 2, EATRO 110 is a strain of T. b. brucei; and KETRI 2002, and KETRI 243 are T. b. rhodesiense clinical isolates.

[2] = system: L5178Y cells (MTA phosphorylase-containing); experiment: Growth inhibition of L5178Y cells; format: cell-based, mouse; conditions: 48 h
Description: (§4) L1210, L5178Y and MOLT-4 cell lines were grown in RPMI 1640 and 10% Nu Serum (Collaborative Research Inc., Lexington, Mass.) and CCRF-CEM cells were grown in 10% Horse Serum (Gibco Laboratories, Grand Island, N.Y.) and maintained as previously described for suspension cultures by Pera et al. in Cancer Res. 46, 1148, 1986. Cell cultures (0.3×10^5 cells/ml) were treated with each compound at 0.1 to 1000 μM to determine the concentration that inhibited growth by 50% (IC50) at 48 hr for the L1210 and L5178Y cells and at 96 hr for the CCRF-CEM and MOLT-4 cells. The incubation times allowed approximately 4 cell doublings in each cell line. All compounds were freshly prepared prior to treatment by dissolving in DMSO and diluting in serum-free media. Cells were counted by electron particle counting (Model XF' Coulter Counter; Coulter Electronics, Hialeah, Fla.).
(§5) For each compound, the concentrations required to inhibit cell growth by 50% (IC50 values) are shown in Table 7 for two murine leukemic cell lines, L1210 and L5178Y [MTA phosphorylase-deficient and MTA phosphorylase-containing, respectively] and two human leukemic cell lines, CCRF-CEM and MOLT-4 [MTA phosphorylase-deficient and MTA phosphorylase-containing, respectively]. ETA, MFETA, HETA and PTA had lower IC50 values in the L5178Y cells than in the L1210 cells. […] This differential is consistent with the possibility that, in L5178Y cells, MFETA is cleaved by MTA phosphorylase to the growth inhibitory metabolite, 5-monofluoroethylthioribose-1-phosphate (MFETR-1-P).

[3] = target: T1, Mouse Liver MTA Phosphorylase (Mus musculus, UniProt Q9CQ65); experiment: Mouse liver MTA phosphorylase substrate/inhibitor assay; format: biochemical; conditions: for Substrate (% Control): substrate activity relative to MTA
T1 sequence (Q9CQ65 1-283): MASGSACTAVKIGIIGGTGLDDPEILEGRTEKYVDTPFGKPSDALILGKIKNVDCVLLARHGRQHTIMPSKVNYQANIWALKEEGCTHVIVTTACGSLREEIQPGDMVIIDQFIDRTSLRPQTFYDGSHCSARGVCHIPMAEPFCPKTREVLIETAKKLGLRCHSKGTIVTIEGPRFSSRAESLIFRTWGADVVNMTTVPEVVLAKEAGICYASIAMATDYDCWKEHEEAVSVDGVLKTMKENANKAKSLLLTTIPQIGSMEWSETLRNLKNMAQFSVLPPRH
Description: (§6) ^a MTA phosphorylase activity was assayed as described in Sufrin et

[4] = system: KETRI 2002 T. b. rhodesiense clinical isolate; experiment: Bloodstream forms of African trypanosomes grown in vitro, KETRI 2002; format: cell-based; conditions: day 4
Description: as §1, §2, §3

[5] = system: T. b. brucei LAB 110 EATRO; experiment: In vivo antitrypanosomal activity, LAB EATRO mouse infection model; conditions: miniosmotic pump
Description: ^a Animals were treated with surgically implanted miniosmotic pumps
loaded as per manufacturers instructions with MTA, HETA or MFETA suspende

[6] = system: P. falciparum; experiment: In vitro antimalarial activity of HETA; format: cell-based, Plasmodium falciparum; conditions: for growth of the microorganism inhibited in an in vitro screen: P. falciparum in vitro screen
[7] = system: T. b. brucei procyclic trypanosomes (Lab 110 EATRO strain); experiment: In vitro antitrypanosomal activity, procyclic trypanosomes in T2 medium; format: cell-based, Trypanosoma brucei brucei; conditions: 3-5 days
Description: The antitrypanosomal effects of HETA and other nucleosides were examined in the Lab 110 EATRO strain of T. b. brucei in culture.
Cells were cultured as described in Bacchi et al. Exp. Parasitol. 68, 392, 1989. Cells were then grown in the presence of the compounds for 3-5 days. Drugs were filtered, sterilized and added aseptically. Control cells achieved a maximum density of 1.5-3.5×10^7 /ml. Hemocytometer counts were made daily and the results were expressed as a percent of control growth. IC50 plots were obtained by graphing log (drug) vs. percent growth inhibition.
Trypanocidal Activity of MTA and MTR Analogs
against T. b. brucei procyclic trypanosomes in T2 medium.

[8] = target: T2, T. b. brucei MTA phosphorylase (Trypanosoma brucei, UniProt Q57XS4); experiment: T. b. brucei MTA phosphorylase substrate assay; format: biochemical; conditions: for Percent Control Activity: relative to MTA
T2 construct: MTA or analogs as substrates
T2 sequence (Q57XS4 entry or part of it): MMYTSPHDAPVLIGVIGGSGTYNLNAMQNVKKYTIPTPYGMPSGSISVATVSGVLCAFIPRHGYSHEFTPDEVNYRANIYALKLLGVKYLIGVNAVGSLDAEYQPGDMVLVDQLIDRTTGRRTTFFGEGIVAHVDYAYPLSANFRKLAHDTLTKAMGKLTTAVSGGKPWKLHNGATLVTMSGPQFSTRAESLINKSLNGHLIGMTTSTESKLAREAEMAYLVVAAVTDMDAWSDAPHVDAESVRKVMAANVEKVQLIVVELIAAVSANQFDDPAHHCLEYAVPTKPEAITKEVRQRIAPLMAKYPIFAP
Description: ^a MTA phosphorylase was assayed according to Ghoda et al., using 200
μM MTA (saturating) or analogs as substrates. Specific activities of
the dialyzed enzyme preparations were with 50 mM PO4, 104.97 n
moles/mg protein/h; without PO4, 28.27 n moles/mg protein/h. Results
are expressed as percent activity compared to as substrate with and
without PO4, respectively.

[9] = system: L1210 cells (MTA phosphorylase-deficient); experiment: Growth inhibition of L1210 cells; format: cell-based, mouse; conditions: L1210, 48 h
Description: as §4, §5

[10] = system: EATRO 110 strain of T. b. brucei; experiment: Bloodstream forms of African trypanosomes grown in vitro, EATRO 110; format: cell-based; conditions: day 4
Description: as §1, §2, §3

[11] = system: MOLT-4 cells (MTA phosphorylase-containing); experiment: Growth inhibition of MOLT-4 cells; format: cell-based, human; conditions: MOLT-4, 96 h
Description: as §4, §5

[12] = system: CCRF-CEM cells (MTA phosphorylase-deficient); experiment: Growth inhibition of CCRF-CEM cells; format: cell-based, human; conditions: 96 h
Description: as §4, §5

[13] = system: Trichomonas vaginalis ATCC 3001; experiment: Minimum lethal concentration against Trichomonas vaginalis, multiwell plate assay, ATCC 3001; format: cell-based
Text: (§7) Preliminary in vitro evaluation of HETA and other compounds against isolates of Trichomonas vaginalis was done.
(§8) Values are expressed as μg of compound per ml of medium required to inhibit growth and motility of the parasite in a multiwell plate assay as described by Meingassner, Mieth, Czok, Lindmark and Muller (1978) Antimicrob. Agents and Chemother. 13, 1-3. The present drug used for treatment--metronidazole (Flagyl®) is included for comparison. Strain ATCC 50143 (CDC-85) was refractory to chemotherapeutic dose levels of metronidazole. (ND=not done).

[14] = system: Plasmodium falciparum (Strain FCR-3: ATCC #30932); experiment: Antimalarial activity in vitro, 3H-hypoxanthine incorporation; format: cell-based; conditions: strain FCR-3, in vitro
Description: P. falciparum was cultured by the method of Trager and Jensen (1976). The FCR-3 strain was used for all experiments. For enzyme measurements, parasites were isolated from infected red cells by saponin lysis and stored at -70° C.
To determine drug effects, ^3 H-hypoxanthine incorporation was measured in the following manner. Infected red cells and varying concentrations of drugs were aliquoted in triplicate wells of a 96-well microtiter plate (Corning). Each well contained a total volume of 200 μl with a final hematocrit of 5 percent and parasitemia of 0.5-1%. The microtiter plates were incubated at 37° C. in candle jars. ^3 H-hypoxanthine (0.5 μCi) was added to each well after 24 hours. After an additional 24 hours of incubation, the parasites were harvested using a PHD cell harvester (Cambridge Technologies). Filters were immersed in Aquasol (New England Nuclear) and counted using a LKB rack beta scintillation counter.
*Concentration which inhibits growth by 50% when compared to untreated,
control cultures, and under defined assay conditions.

[15] = system: Trichomonas vaginalis ATCC 50143 (CDC-85), metronidazole-resistant; experiment: Minimum lethal concentration against Trichomonas vaginalis, multiwell plate assay, ATCC 50143 (CDC-85); format: cell-based
Text: as §7, §8

[16] = substrate: CSC[C@H]1O[C@@H](n2cnc3c(N)ncnc32)[C@H](O)[C@@H]1O; experiment: Mouse liver MTA phosphorylase substrate/inhibitor assay; format: biochemical; conditions: other: mouse liver MTA phosphorylase
Description: as §6

## Nc1ncnc2c1ncn2[C@@H]1O[C@H](CSCCO)[C@@H](O)[C@H]1O [HETA, 5'-deoxy-5'-(hydroxyethylthio)adenosine]
[1]; 0.1 um HETA
  percent inhibition of growth: 0%
[1]; 0.5 um HETA
  percent inhibition of growth: 0%
[1]; 1.0 um HETA
  percent inhibition of growth: 0%
[1]; 2.25 um HETA
  percent inhibition of growth: 0%
[2]; Mus musculus
  IC50: 500 µM
[3]; mouse liver MTA phosphorylase, read-out: K1
  Ki: 26 µM
[3]
  Substrate (% Control): 34 % Control
[4]; 0.1 um HETA
  percent inhibition of growth: 0%
[4]; 0.5 um HETA
  percent inhibition of growth: 0%
[4]; 1.0 um HETA
  percent inhibition of growth: 15%
[4]; 2.25 um HETA
  percent inhibition of growth: 60%
[5]; 25 mg/kg/day, 7 days
  % Cured: 73%
  MSD (mean survival in days of animals dying of infection): 15.3 days
  Number Cured Total: 11/15
[5]; 50 mg/kg/day, 7 days
  % Cured: 68%
  MSD (mean survival in days of animals dying of infection): 14.5 days
  Number Cured Total: 17/25
[5]; 50 mg/kg/day, 14 days
  % Cured: 60%
  MSD (mean survival in days of animals dying of infection): 18.1 days
  Number Cured Total: 9/15
[5]; 100 mg/kg/day, 7 days
  % Cured: 87%
  MSD (mean survival in days of animals dying of infection): 26.0 days
  Number Cured Total: 13/15
[5]; 150 mg/kg/day, 7 days
  % Cured: 90%
  MSD (mean survival in days of animals dying of infection): 14.5 days
  Number Cured Total: 18/20
[6]
  growth of the microorganism inhibited in an in vitro screen: inhibited
[6]; Plasmodium falciparum, P. falciparum in vitro
  IC50: ~22 µM
[7]; Trypanosoma brucei
  IC50: 0.5 µM
[8]; +50 mM PO4, 200 μM substrate
  Percent Control Activity: 85%
[8]; No PO4, 200 μM substrate
  Percent Control Activity: 100%
[8]; compared with MTA
  metabolism by T. b. brucei MTA phosphorylase: as effectively as MTA itself
[9]; Mus musculus
  IC50: 1000 µM
[10]; 0.1 um HETA
  percent inhibition of growth: 0%
[10]; 0.5 um HETA
  percent inhibition of growth: 44%
[10]; 1.0 um HETA
  percent inhibition of growth: 59%
[10]; 2.25 um HETA
  percent inhibition of growth: 70%
[11]; Homo sapiens
  IC50: 40 µM
[12]; Homo sapiens
  IC50: 100 µM
[13]; C1-NIH strain, preliminary in vitro evaluation
  activity against the C1-NIH strain: displays activity

## OCCSC[C@H]1OC(O)[C@H](O)[C@@H]1O (stereo partly shown) [HETR, 5-deoxy-5-(hydroxyethylthio)ribose]
[6]
  growth of the microorganism inhibited in an in vitro screen: not
[7]; Trypanosoma brucei
  IC50: > 100 µM
[14]
  IC50: > 1000 µM

## OC1O[C@H](CSCCF)[C@@H](O)[C@H]1O (stereo partly shown) [MFETR, 5-deoxy-5-(monofluoroethylthio)ribose]
[14]
  IC50: 700 µM

## CCSC[C@H]1OC(O)[C@H](O)[C@@H]1O (stereo partly shown) [ETR, 5-deoxy-5-(ethylthio)ribose, reference compound]
[7]; Trypanosoma brucei
  IC50: > 100 µM
[14]
  IC50: > 1000 µM

## Nc1ncnc2c1ncn2[C@@H]1O[C@H](CSCCCl)[C@@H](O)[C@H]1O [CETA, 5'-deoxy-5'-(chloroethylthio)adenosine]
[15]; ATCC 50143, 24 h
  Minimum lethal concentration (MLC): 187.5 µg/mL
[15]; ATCC 50143, 48 h
  Minimum lethal concentration (MLC): 11.7 µg/mL
[15]; CDC-85 strain, preliminary in vitro evaluation
  activity against metronidazole(Flagyl)-resistant strain CDC-85: active
[2]
  IC50: 200 µM
[3]
  Ki: 12 µM
  Substrate (% Control): 35 % Control
[7]
  IC50: 2.5 µM
[8]; +50 mM PO4, 200 μM substrate
  Percent Control Activity: 60%
[8]; No PO4, 200 μM substrate
  Percent Control Activity: 94.4%
[9]
  IC50: 250 µM
[11]
  IC50: 30 ± 20 µM
[12]
  IC50: 240 ± 90 µM
[13]; ATCC 3001, 24 h
  Minimum lethal concentration (MLC): 93.7 µg/mL
[13]; ATCC 3001, 48 h
  Minimum lethal concentration (MLC): 23.4 µg/mL

B1: Mouse Liver MTA Phosphorylase (Mus musculus) (protein)
chain: T1 sequence (Q9CQ65 1-283)
notes: of Mouse Liver MTA Phosphorylase; from tissue; host or cells: mouse liver
[16]
  Km: 1.3 µM
